# From PMC11794875, “Molecular basis for azetidine-2-carboxylic acid biosynthesis” (Nature Communications, 2025)
# Read-outs that look alike come from different tables or passages of the source.
# Assays:
# [1] = target: T1, AzeJ (Pseudomonas aeruginosa, UniProt Q9HYR0); test: X-ray crystal structure, […] Å; assay type: binding; conditions: co-crystallised with 2 mM SAM, pH 7.0 or 7.2, formed in crystal, active site
# T1 construct: gene PA3335; N-terminal His6-SUMO fusion in pETDuet, codon-optimised, SUMO tag cleaved by Ulp1; E. coli BL21 Gold (DE3); homodimer
# [2] = target: T1, AzeJ; assay type: binding; conditions: 100 mM Tris-HCl, pH 8.0, 10 µM protein
# [3] = target: T2, VioH (Archangium violaceum, UniProt Z9G018KSM0); test: in vitro AZE synthase activity assay, HPLC; assay type: biochemical; conditions: without VioG partner
# T2 construct: N-terminal His6-SUMO fusion in pETDuet, codon-optimised, SUMO tag cleaved by Ulp1; E. coli BL21 Gold (DE3); monomer
# T2 sequence (Z9G018KSM0 1-236): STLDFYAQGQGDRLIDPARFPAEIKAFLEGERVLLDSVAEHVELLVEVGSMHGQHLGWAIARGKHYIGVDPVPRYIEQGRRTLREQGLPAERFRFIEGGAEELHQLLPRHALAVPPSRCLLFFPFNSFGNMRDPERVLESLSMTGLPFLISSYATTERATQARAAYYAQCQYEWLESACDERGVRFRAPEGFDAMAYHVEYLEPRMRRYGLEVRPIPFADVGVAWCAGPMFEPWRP
# T1 sequence (Q9HYR0 entry or part of it): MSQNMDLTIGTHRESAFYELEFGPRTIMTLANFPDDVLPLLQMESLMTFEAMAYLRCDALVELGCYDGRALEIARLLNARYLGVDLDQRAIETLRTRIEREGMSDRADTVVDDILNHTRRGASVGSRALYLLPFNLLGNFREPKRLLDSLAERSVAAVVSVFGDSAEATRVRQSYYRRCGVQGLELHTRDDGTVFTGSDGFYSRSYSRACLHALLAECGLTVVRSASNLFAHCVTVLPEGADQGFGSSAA
smiles,measurement,setting,value
"O=C(O)[C@@H]1CCN1 [AZE, azetidine-2-carboxylic acid]","X-ray crystal structure, 1.95 Å",[1]; with MTA,Fo-Fc electron density maps reveal that MTA and AZE are bound to the active site
"CSC[C@H]1O[C@@H](n2cnc3c(N)ncnc32)[C@H](O)[C@@H]1O [MTA, 5′-methylthioadenosine]","X-ray crystal structure, 1.95 Å",[1]; with AZE,Fo-Fc electron density maps reveal that MTA and AZE are bound to the active site
"Nc1ncnc2c1ncn2[C@@H]1O[C@H](CSCC[C@H](N)C(=O)O)[C@@H](O)[C@H]1O [SAH, S-adenosyl-L-homocysteine]",dTm,[2]; 0–1 mM SAH,"In the presence of SAM or SAH, the melting temperature of AzeJ increased"
"C[S+](CC[C@H](N)C(=O)O)C[C@H]1O[C@@H](n2cnc3c(N)ncnc32)[C@H](O)[C@@H]1O (some centres unmarked) [SAM, S-adenosylmethionine]",dTm,[2]; 0–1 mM SAM,"In the presence of SAM or SAH, the melting temperature of AzeJ increased"
same,"in vitro AZE synthase activity assay, HPLC",[3],in vitro observation that VioH alone had minimal catalytic activity (Fig. S8)
